Here are results for 2 molecules from publication PMC6125496 (Antimicrobial Agents and Chemotherapy, 2018).

In brackets after ≈: the same amount, converted by molar mass. Like-named read-outs stand apart in the source and are kept apart here. Non-standard residues stand in square brackets, D forms with d. Residues, ends and D or L forms follow the SMILES beside them. Dab(3S-OH) = NC[C@H](O)[C@H](N)C(=O)O; Phe(2-F) = N[C@@H](Cc1ccccc1F)C(=O)O; ΔZArg = N=C(N)NCC/C=C(\N)C(=O)O; dOrn = NCCC[C@@H](N)C(=O)O; Dab = NCC[C@H](N)C(=O)O

The subject of data set [1] is Escherichia coli, colistin-resistant (25). From the text:
(§1) Reference strains are from the German Collection of Microorganisms and Cell Cultures (DSMZ), the American Type Culture Collection (ATCC), the National Collection of Type Cultures (NCTC), and the Medical and Molecular Microbiology, Faculty of Science and Medicine, University of Fribourg, Switzerland.

The subject of data set [2] is Klebsiella pneumoniae, colistin resistant (46).
Source text: as §1

Data set [3] relates to Gentamicin-resistant E. coli (6). The settings on record: 6 gentamicin-resistant isolates.
Source text: as §1

Another data set can be described thus: in vitro. The settings on record: liver microsomes, pH 7.4. As for the experimental part:
The microsome metabolic stability assays were performed by Cyprotex Discovery Ltd. (Macclesfield, UK). Pooled microsomes from different species (mouse, rat, dog, monkey, and human) were stored at −80°C prior to use. […] The final incubation volume was 500 μl. A minus cofactor control incubation was included for each compound tested, in which 0.1 M phosphate buffer (pH 7.4) was added instead of NADPH (minus NADPH). Two control compounds were included with each species. Each compound was incubated for 0, 5, 15, 30, and 45 min. The control (minus NADPH) was incubated for 45 min only. The reactions were stopped by transferring an aliquot of the mixture to 40% TCA in water containing an internal standard (NOSO-95216, 1 μM final concentration) for the test compounds, or methanol for the control compounds, at the desired time points. The termination plates were centrifuged at 2,500 rpm for 20 min at 4°C to precipitate the protein. Following protein precipitation, the test compound sample supernatants were diluted with analytical-grade water, whereas the control compounds were diluted with an internal standard (metoprolol) in water. The test compound samples were analyzed by LC-MS/MS.
Background: Liver microsomes are vesicles of endoplasmic reticulum, rich in cytochrome P450 enzymes.

For data set [4], the target named is Nav 1.5 human sodium ion channel (Homo sapiens, UniProt Q14524). Kind of data set: cell-based.
Chain of Nav 1.5 human sodium ion channel (Q14524 1-2015 isoform Q14524-2): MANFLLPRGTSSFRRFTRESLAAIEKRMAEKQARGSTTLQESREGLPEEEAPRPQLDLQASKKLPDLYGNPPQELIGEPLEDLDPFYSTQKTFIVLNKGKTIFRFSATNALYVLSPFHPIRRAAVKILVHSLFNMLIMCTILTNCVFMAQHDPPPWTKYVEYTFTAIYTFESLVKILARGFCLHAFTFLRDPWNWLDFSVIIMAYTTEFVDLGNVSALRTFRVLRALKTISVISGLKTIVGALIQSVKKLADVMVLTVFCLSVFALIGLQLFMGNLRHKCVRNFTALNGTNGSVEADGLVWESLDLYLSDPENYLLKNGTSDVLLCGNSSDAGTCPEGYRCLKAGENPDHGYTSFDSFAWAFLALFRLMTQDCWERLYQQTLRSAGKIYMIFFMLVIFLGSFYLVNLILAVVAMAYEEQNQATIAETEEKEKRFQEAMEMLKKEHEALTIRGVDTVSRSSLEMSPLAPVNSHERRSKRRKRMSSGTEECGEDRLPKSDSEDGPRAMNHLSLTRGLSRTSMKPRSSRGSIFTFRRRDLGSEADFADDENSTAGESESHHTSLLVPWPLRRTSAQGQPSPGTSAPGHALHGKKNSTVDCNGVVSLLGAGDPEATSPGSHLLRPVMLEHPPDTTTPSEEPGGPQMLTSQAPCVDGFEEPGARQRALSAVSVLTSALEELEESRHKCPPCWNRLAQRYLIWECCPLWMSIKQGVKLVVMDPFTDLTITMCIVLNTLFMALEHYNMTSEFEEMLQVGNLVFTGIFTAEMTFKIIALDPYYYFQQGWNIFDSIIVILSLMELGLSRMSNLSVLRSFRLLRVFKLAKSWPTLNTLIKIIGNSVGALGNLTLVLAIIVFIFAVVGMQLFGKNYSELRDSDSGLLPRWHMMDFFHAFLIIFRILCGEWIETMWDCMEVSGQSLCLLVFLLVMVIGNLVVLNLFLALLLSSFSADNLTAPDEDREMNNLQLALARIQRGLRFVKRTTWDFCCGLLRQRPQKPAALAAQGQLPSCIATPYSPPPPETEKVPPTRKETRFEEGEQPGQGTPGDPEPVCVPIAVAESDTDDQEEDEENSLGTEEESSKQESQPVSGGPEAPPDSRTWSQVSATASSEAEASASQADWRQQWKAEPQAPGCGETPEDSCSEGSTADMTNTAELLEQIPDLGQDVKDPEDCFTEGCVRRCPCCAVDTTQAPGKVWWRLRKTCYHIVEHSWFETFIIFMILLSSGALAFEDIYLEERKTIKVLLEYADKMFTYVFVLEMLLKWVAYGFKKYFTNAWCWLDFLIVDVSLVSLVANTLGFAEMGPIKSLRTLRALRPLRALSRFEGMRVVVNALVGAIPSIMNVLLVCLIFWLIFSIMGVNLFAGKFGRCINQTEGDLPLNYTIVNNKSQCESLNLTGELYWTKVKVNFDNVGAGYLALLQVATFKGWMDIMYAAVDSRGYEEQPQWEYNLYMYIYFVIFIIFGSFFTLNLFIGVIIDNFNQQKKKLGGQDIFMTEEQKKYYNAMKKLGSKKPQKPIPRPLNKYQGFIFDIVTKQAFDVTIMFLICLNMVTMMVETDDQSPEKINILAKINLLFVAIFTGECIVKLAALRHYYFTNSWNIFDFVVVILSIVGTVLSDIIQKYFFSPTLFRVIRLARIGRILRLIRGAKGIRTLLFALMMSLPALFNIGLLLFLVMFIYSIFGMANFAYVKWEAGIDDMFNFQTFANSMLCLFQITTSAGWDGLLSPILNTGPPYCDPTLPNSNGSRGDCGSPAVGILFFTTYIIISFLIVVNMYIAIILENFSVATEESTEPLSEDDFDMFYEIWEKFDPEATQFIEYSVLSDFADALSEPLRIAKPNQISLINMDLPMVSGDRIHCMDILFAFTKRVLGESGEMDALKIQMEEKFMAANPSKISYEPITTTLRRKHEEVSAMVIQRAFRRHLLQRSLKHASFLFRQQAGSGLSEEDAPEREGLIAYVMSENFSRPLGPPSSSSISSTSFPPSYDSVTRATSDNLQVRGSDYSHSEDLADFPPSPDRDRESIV
Experimental: Inhibition of the Nav 1.5 human sodium ion channel was determined by Eurofins Panlabs in HEK-293 cells stably transfected with human Nav1.5 cDNA (type V voltage-gated sodium channel alpha subunit, GenBank accession number NM_000335) using IonWorks Quattro automated whole-cell patch clamp electrophysiology. […] In this method, the voltage protocol is applied prior to compound addition (Pre), the compounds are added and incubated for 600 s at room temperature, and then the voltage protocol is applied a final time (Post) on the IonWorks Quattro.
Data set [5] deals with Enterobacter cloacae KBM15. The settings on record: Ambler class A carbapenemase; KPC-2 + TEM-1 + OXA-9.
Source text: as §1

For data set [6], the system named is Klebsiella pneumoniae LAM. The settings on record: Ambler class B carbapenemase; NDM-4 + SHV-11 + CTX-M15.
Source text: as §1

Data set [7] relates to Klebsiella pneumoniae ATCC BAA-2146. The settings on record: Ambler class B carbapenemase; NDM-1 + CTX-M15 + TEM-1 + CMY-6 + OXA-1 + SHV-1.
Source text: as §1

The next data set deals with Escherichia coli DOV. The settings on record: Ambler class D carbapenemase; OXA-48 + TEM-1 + CTX-M15 + OXA-1.
Source text: as §1

The next data set deals with Escherichia coli MON. The settings on record: Ambler class B carbapenemase; NDM-5 + CTX-M15 + TEM-1.
Source text: as §1

In a further data set the test system is Escherichia coli PSP. The settings on record: Ambler class A carbapenemase; KPC-2 + TEM-1 + OXA-1.
Source text: as §1

A further data set has as its system Escherichia coli EGB957. The settings on record: Ambler class B carbapenemase; VIM-1 + OXA-48 + TEM-1 + CMY-4 + OXA-1.
Source text: as §1

Data set [8] concerns Enterobacter cloacae 3047. The settings on record: Ambler class B carbapenemase; NDM-1 + CTX-M15 + TEM-1 + OXA-1.
Source text: as §1

For the next data set, the system named is Enterobacter cloacae YAM. The settings on record: Ambler class D carbapenemase; OXA-48 + CTX-M15 + TEM-1 + OXA-1 + DHA-1.
Source text: as §1

Data set [9] has as its system Klebsiella pneumoniae A33504. The settings on record: Ambler class A carbapenemase; KPC-2+ SHV-11 + TEM-1 + CTX-M-2 + OXA-9.
Source text: as §1

Another data set concerns Escherichia coli GAL. The settings on record: Ambler class B carbapenemase; NDM-6 + OXA-1 + CTX-M15.
Source text: as §1

The next data set concerns Enterobacter cloacae BEU. The settings on record: Ambler class D carbapenemase; OXA-48 + CTX-M15 + SHV-12 + TEM-1 + OXA-1 + DHA-1.
Source text: as §1

In the next data set the test system is Escherichia coli COL. The settings on record: Ambler class A carbapenemase; KPC-2 + TEM-1 + CTX-M9.
Source text: as §1

Take `N=C(N)NCC/C=C(\NC(=O)[C@H](CCCCN)NC(=O)[C@H](Cc1ccccc1F)NC(=O)[C@@H]1CCCN1C(=O)[C@@H](CCCN)NC(=O)CNC(=O)[C@H](CCN)NC(=O)[C@@H](NC(=O)[C@@H](N)CCCCN)[C@@H](O)CN)C(=O)O` [NOSO-502] (H-K[Dab(3S-OH)][Dab]G[dOrn]P[Phe(2-F)]K[ΔZArg]-OH): the MIC range in data set [1] (Unknown mechanism (2 isolates)) was 1 to 2 µg/mL; in data set [1] (mcr-1 (21 isolates)), 1 to 4 µg/mL; in [1] (mcr-2 (1 isolate)), 1 µg/mL (≈ 0.927 µM); in data set [1] (mcr-3 (1 isolate)) it was 1 µg/mL (≈ 0.927 µM); in [2] (Unknown mechanism (1)), 0.5 µg/mL (≈ 0.464 µM); in data set [2] (crrB F84S substitution (1)), 8 µg/mL (≈ 7.42 µM). In addition, the MIC range in [2] (crrB G183V substitution (1)) was 64 µg/mL (≈ 59.4 µM); in [2] (crrB N141Y substitution (1)) it was 16 µg/mL (≈ 14.8 µM); in data set [2] (crrB P151L substitution (1)), 128 µg/mL (≈ 119 µM); in data set [2] (mcr-1 (1)) it was 0.5 µg/mL (≈ 0.464 µM); in data set [2] (mgrB IS1R between +44 and +45 (2)), 1 µg/mL (≈ 0.927 µM); in [2] (mgrB IS1R into promoter between −45 and −46 (3)), 0.5 to 1 µg/mL. The MIC range in data set [2] (mgrB IS5 between +74 and +75 (4)) was 0.5 to 2 µg/mL; in data set [2] (mgrB IS903B between +69 and +70 (2)), 0.25 to 1 µg/mL; in data set [2] (mgrB ISKpn14 into promoter between −28 and −29 (2)), 0.5 to 2 µg/mL; in [2] (mgrB ISKpn26-like between +74 and +75 (2)), 1 µg/mL (≈ 0.927 µM); in data set [2] (mgrB M27K substitution (1)) it was 2 µg/mL (≈ 1.85 µM); in data set [2] (mgrB N42Y and K43I substitutions (1)), 2 µg/mL (≈ 1.85 µM). Also, the MIC range in [2] (mgrB W20R substitution (1)) was 0.5 µg/mL (≈ 0.464 µM); in data set [2] (mgrB W47R substitution (1)), 1 µg/mL (≈ 0.927 µM); in [2] (mgrB full deletion (5)), 0.5 to 1 µg/mL; in data set [2] (mgrB premature termination (6)), 0.5 to 1 µg/mL; in [2] (phoQ R16C substitution (1)), 2 µg/mL (≈ 1.85 µM); in [2] (pmrA G53S substitution (2)) it was 1 to 2 µg/mL. Besides, the MIC range in data set [2] (pmrB L17Q substitution (1)) is 1 µg/mL (≈ 0.927 µM); in data set [2] (pmrB T157P substitution (6)), 0.25 to 16 µg/mL; in data set [3], 4 µg/mL (≈ 3.71 µM). For the same molecule, the half-life at 1 μM in the data set “in vitro” (dog) worked out at 1.68 h; in “in vitro” (human), 2.42 h; in the data set “in vitro” (monkey) it was 2.45 h; in “in vitro” (mouse), 1.93 h; in the data set “in vitro” (rat), 2.15 h. Further, the IC50 in data set [4] was greater than 512 µM.

As for polymyxin B [PMB], the MIC in data set [5] was determined as 0.5 µg/mL; in data set [6], 0.5 µg/mL; in data set [7] it was 1 µg/mL; in the data set on Escherichia coli DOV it was 0.5 µg/mL; with Escherichia coli MON, 0.5 µg/mL; in the data set with Escherichia coli PSP, 0.5 µg/mL. For the same molecule, the MIC was determined as 0.5 µg/mL with Escherichia coli EGB957; 0.5 µg/mL in data set [8]; 1 µg/mL in the data set with Enterobacter cloacae YAM; 0.5 µg/mL in data set [9]; 0.25 µg/mL in the data set on Escherichia coli GAL; 16 µg/mL with Enterobacter cloacae BEU. Besides, the MIC in the data set on Escherichia coli COL is 0.5 µg/mL.

By half-life is commonly meant the time in which the quantity being followed falls by half. A word on the IC50: it is the concentration that inhibits the measured activity by half. Lower therefore signals inhibition by little substance. For orientation: MIC means the lowest concentration that inhibits growth of the organism.
